From patent US11534428B1, “Compositions and methods for delaying the incidence of labor” (ObsEva S.A., priority 2018, dated 2022)
Entries after “also recorded” stand apart in the source; their conditions may differ. Like-named read-outs stand apart in the source and are kept apart here. One block for each compound: values may come before it. Bridge positions count the residues as written; N and C are the ends. Square brackets hold non-standard residues; d marks the D form. Peptide text beside a SMILES is read from it. Orn = NCCC[C@H](N)C(=O)O; Mpa = O=C(O)CCS

Assays:
[1] = Part A: three-period crossover, single doses of compound (2) and MgSO4 alone and co-administered; settings: for pharmacokinetic interaction between compound (2) and MgSO4: in vivo
Protocol: Both studies enrolled 12 healthy, non-pregnant women of reproductive age. […] During the MgSO4 study, women stayed in the clinic from Day −1 to Day 4 of each period. Safety and pharmacokinetics were assessed in accordance with European and United States clinical drug-interaction guidelines. Additional electrocardiogram and neurological examinations were performed assessing safety following MgSO4 administration.
One cohort of 12 subjects was admitted to the study unit on day −1, period 1. […] On day 1, subjects were crossed over and received the alternate treatment to that in period 1. Subjects were discharged on day 3, and after washout returned on day −1, period 3. […] Outpatient visits occurred on days 4 and 5 followed by a final visit 7 days (±1 day) later. Venous blood samples used in pharmacokinetic analyses were taken pre-dose then 0.25, 0.5, 0.75, 1, 1.5, 2, 3, 4, 6, 8, 12, 16 and 20 hours post dose on day 1 of each treatment period. Single samples for pharmacokinetic analysis were also drawn on days 2, 3, 4 and 5 of each treatment period.
(§1) Plasma samples used to determine drug concentration were analyzed by SGS (SGS CEPHAC, France) using a validated methods. Non-compartmental analysis was used to estimate pharmacokinetic parameters and pharmacokinetic modeling was used to access time-dependent pharmacokinetics. […] Other pharmacokinetic parameters were calculated according to standard equations.
Pharmacokinetic interaction assessments were performed on logarithmically transformed AUC0-24, AUC0-∞ and Cmax values using ANOVA models with fixed effects for sequence (Part A only), period, and treatment and a random term for subject within sequence.
(§2) Differences in tmax were explored by computing the Hodges-Lehmann estimate and the corresponding 90% CI according to Tukey using the approximate method. The Wilcoxon signed rank test was used to test differences in tmax. Unrecorded values were treated as missing.

[2] = Part B: single-sequence crossover, compound (2) at steady state co-administered with atosiban, nifedipine or betamethasone; settings: for Tmax: female, human, in vivo, iv, 60.75 mg, time of peak plasma concentration
Protocol: (§3) Both studies enrolled 12 healthy, non-pregnant women of reproductive age. […] Safety and pharmacokinetics were assessed in accordance with European and United States clinical drug-interaction guidelines.
(§4) Once at steady state, compound (2) was sequentially co-administered with each of the other tocolytic drugs. Subjects were admitted to the study unit on day −1. On day 1, each subject received a single intravenous treatment course of atosiban. […] From days 4 to 9, oral doses of compound (2) (1,000 mg) were administered until reaching steady state. […] Two additional samples were taken at 24 and 48 hours post dose to determine betamethasone concentration, due to the longer half-life of this drug. Pharmacokinetic sampling also occurred before compound (2) administration on days 4, 5, 6, 7, 8 and 9, with an additional 0.25 hour post-dose sample taken on day 9 to determine concentration of compound (2) and its metabolite, compound (1). […] Pharmacokinetic samples were obtained at the times stated above on days 10, 11 and 12, and additional betamethasone samples were obtained 24 and 48 hours post-dose. Subjects were discharged on day 14 and returned for a follow-up visit on day 21.
as §1
(§5) Pharmacokinetic interaction assessments were performed on logarithmically transformed AUC0-24, AUC0-∞ and Cmax values using ANOVA models with fixed effects for sequence (Part A only), period, and treatment and a random term for subject within sequence. The 90% confidence intervals (90% CI) for the geometric mean ratio of AUC0-24, AUC0-∞ and Cmax were constructed, comparing treatments administered alone versus combination treatments.
as §2

[3] = in vivo
Protocol: as §3, §4, §1, §5, §2

clinical = settings: female, human, in vivo
Protocol: as §3, §4, §1, §5, §2

[4] = molecular target: T1, Pept1 transporter protein (Homo sapiens, UniProt P46059); assay: Pept1 transporter dependence of intestinal absorption; type: in vitro ADME
T1 sequence (P46059 1-708): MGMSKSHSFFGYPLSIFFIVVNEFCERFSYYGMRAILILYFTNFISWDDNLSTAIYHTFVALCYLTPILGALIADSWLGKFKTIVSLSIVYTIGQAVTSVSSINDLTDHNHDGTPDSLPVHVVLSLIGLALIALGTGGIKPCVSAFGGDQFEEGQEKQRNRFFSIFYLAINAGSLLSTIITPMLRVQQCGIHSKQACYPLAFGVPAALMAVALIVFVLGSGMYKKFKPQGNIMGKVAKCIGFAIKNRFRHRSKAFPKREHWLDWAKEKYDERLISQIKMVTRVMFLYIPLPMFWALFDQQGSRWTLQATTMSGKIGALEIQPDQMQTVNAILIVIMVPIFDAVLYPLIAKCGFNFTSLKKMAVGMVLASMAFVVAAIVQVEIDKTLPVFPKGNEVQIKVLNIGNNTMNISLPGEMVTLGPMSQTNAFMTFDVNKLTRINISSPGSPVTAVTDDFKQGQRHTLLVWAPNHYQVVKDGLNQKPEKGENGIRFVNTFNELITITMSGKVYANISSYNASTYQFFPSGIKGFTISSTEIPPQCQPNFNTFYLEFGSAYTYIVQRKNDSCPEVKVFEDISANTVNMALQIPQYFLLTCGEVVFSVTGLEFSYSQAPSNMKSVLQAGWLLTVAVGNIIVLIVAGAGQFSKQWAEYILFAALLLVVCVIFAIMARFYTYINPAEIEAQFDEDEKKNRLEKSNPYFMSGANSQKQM
From the text: Compound 2 is de-esterified by ambient esterases in the small intestine and subsequently penetrates the small intestinal epithelium passively. […] Pept1 is known to mediate the absorption of a variety of valinate esters, as described, for example, in Vig et al., Adv. Drug Deliv. Rev. […] Dispos. 41:608-614 (2013). […] Rather, compound 2 and salts thereof are converted in vivo to a form that is readily absorbed in a manner independent of energy and local proton gradient. This beneficial property, coupled with the high aqueous solubility of compound I and salts thereof, fosters a pharmacokinetic profile in which compound 2 and salts thereof readily dissolve in an aqueous environment and are in turn converted into a form capable of transported-independent absorption.

[5] = clinical drug-interaction study in healthy women, Parts A and B together (pharmacokinetics, safety, tolerability); type: in vivo, human; settings: plasma, oral compound (2)
Protocol: Healthy women aged between 18 and 45 years with a body mass index of 18.0 to 30.0 kg/m^2 were included in these investigations. Subjects were screened 55 days before the first drug administration and had to be healthy according to medical history, physical examinations, blood pressure tests, electrocardiogram results and laboratory assessment of blood and urine.
This study was performed at Croydon University Hospital, Croydon, UK. The study protocol (EudraCT: 2016-001958-18) was reviewed and approved by a National Health Service (NHS) Research Ethics Committee (South Central-Berkshire B, UK) and the Medicines and Healthcare products Regulatory Authority (MHRA). The study was conducted according to the ethical principles enshrined in UK law, the Declaration of Helsinki and Good Clinical Practice guidelines. All subjects were informed of the purpose of the study and signed voluntary consent forms before being enrolled.
Other pharmacokinetic parameters were calculated according to standard equations.

[6] = relative to compound 1; cited from earlier work
[7] = crystal form stability and hygroscopicity; type: physicochemical
From the text: For example, this compound is readily crystallized using a several distinct experimental procedures. Compound 3 assumes a single, reproducible crystal form upon crystallization from a variety of media and under different ambient conditions. […] For instance, impurities associated with atmospheric water are not readily integrated into the crystalline form of compound 3.

[8] = co-administration with MgSO4 vs compound (2) alone
[9] = compound (2) with MgSO4 vs alone

Cmax and AUCs, co-administration with compound (2) vs drug alone [3]: Slightly increased
rise of plasma concentrations [3]: increased more rapidly
tmax, with compound (2) vs drug alone [3]: significantly shorter
Compound: C[C@H]1C[C@H]2[C@@H]3CCC4=CC(=O)C=C[C@]4(C)[C@@]3(F)[C@@H](O)C[C@]2(C)[C@@]1(O)C(=O)CO [betamethasone, reference compound]

change in compound (1) AUC0-24 ([3]; female, human): 15-24%
change in compound (1) AUC (AUC0-24) ([3]; female, human): −21%
increase in compound (1) AUC ([3]; female, human): 15%
increase in compound (1) Cmax ([3]; female, human): 35%
increase in compound (1) MRT and t1/2 ([3]; female, human): 1.7-2 fold
PE, compound (1) AUC ([3]; human): 0.786
PE, compound (1) Cmax ([3]; human): 0.719
changes in compound (1) tmax ([3]; human): not significant
compound (1) CL/F ([3]; human): decrease
compound (1) tmax ([3]; human): increase
Tmax (clinical): 3 h
compound (1) AUC0-24 [1, 8]: small decrease
compound (1) AUC0-t or AUC0-∞ [1, 8]: unchanged
compound (1) tmax [1, 9]: slightly later; also recorded: no effect
interaction estimates (linear mixed model) [1, 9]: ~1
compound (1) Cmax ([1]; during MgSO4 infusion vs compound (2) alone): lower
pharmacokinetic interaction between compound (2) and MgSO4 [1]: no interaction of clinical significance
compound (1) mean t1/2 and MRT ([1]; with vs without MgSO4 infusion): nearly identical
Compound: O=C(N[C@@H](CCO)c1ccc(F)cc1)[C@@H]1SCCN1S(=O)(=O)c1ccc(-c2ccccc2)cc1 [compound (1), 3-([1,1′-biphenyl]-4-ylsulfonyl)-N-[1-(4-fluorophenyl)-3-hydroxypropyl]-1,3-thiazolidine-2-carboxamide]

substrate for the Pept1 transporter protein [4]: not substrates
Compound: CC(C)[C@H](N)C(=O)OCC[C@H](NC(=O)[C@@H]1SCCN1S(=O)(=O)c1ccc(-c2ccccc2)cc1)c1ccc(F)cc1 [compound (2), (3S)-3-({[(2S)-3-(biphenyl-4-ylsulfonyl)-1,3-thiazolidin-2-yl]carbonyl}-amino)-3-(4-fluorophenyl)propyl L-valinate]
mean AUC0-∞ of compound (2), times lower than that of compound (1) [5]: 771-1163 times
mean peak concentration of compound (2), times lower than that of compound (1) [5]: 133-246 times
solubility in water and in FeSSIF and FaSSIF media [6]: improvements
pharmacokinetic interaction between compound (2) and MgSO4 [1]: no relevant mutual pharmacokinetic interactions

hygroscopicity [7]: low
stability of the crystal form ([7]; ambient conditions and elevated relative humidity): extended stability
Compound: CC(C)[C@H](N)C(=O)OCC[C@H](NC(=O)[C@@H]1SCCN1S(=O)(=O)c1ccc(-c2ccccc2)cc1)c1ccc(F)cc1.Cl [compound (3), (3S)-3-({[(2S)-3-(biphenyl-4-ylsulfonyl)-1,3-thiazolidin-2-yl]carbonyl}-amino)-3-(4-fluorophenyl)propyl L-valinate hydrochloride]

The next lines start with the compound.

Compound: O=S(=O)([O-])[O-].[Mg+2] [MgSO4, magnesium sulfate, reference compound]
AUCs of total Mg ([1]; after co-administration of compound (2) and MgSO4 vs MgSO4 alone): slightly lower
pharmacokinetic interaction between compound (2) and MgSO4 [1]: no relevant mutual pharmacokinetic interactions
effect of compound (2) on timing or extent of total Mg exposure ([1]; interaction analysis): no effects

Compound: CCOc1ccc(C[C@H]2NC(=O)CCSSC[C@@H](C(=O)N3CCC[C@H]3C(=O)N[C@@H](CCCN)C(=O)NCC(N)=O)NC(=O)[C@H](CC(N)=O)NC(=O)[C@H]([C@@H](C)O)NC(=O)[C@H]([C@@H](C)CC)NC2=O)cc1 [atosiban] ([Mpa][dY](Et)ITNCP[Orn]G-NH2; disulfide 1-6)
Cmax and AUCs, co-administration with compound (2) vs drug alone ([2]; descriptive): slightly higher
Tmax ([2]; co-administered with compound (2), compound (2) 1,000 mg per day at steady state): 0.25 h
Tmax ([2]; drug administered alone): 1.5 h
tmax, with compound (2) vs drug alone ([2]; paired analysis): no significant tmax difference

Compound: COC(=O)C1=C(C)NC(C)=C(C(=O)OC)C1c1ccccc1[N+](=O)[O-] [nifedipine, reference compound]
effect of compound (2) on exposure to the co-administered drug [3]: marked increase
